Columns and labels:
[1] = system: MDA-MB-231 cells; assay: RNA sequencing; format: cell-based, human; details: MitoQ 500 nM, 48 h; |log 2 fold change|>1 and P<0.01
Experimental: (§1) MDA-MB-231 and SkBr3 cancer cells were treated ±MitoQ for 48 h. Total mRNA was then extracted using the NucleoSpin RNA kit (Macherey-Nagel®), including DNAse treatment in the intermediary steps. mRNAs were quantified using the Qubit BR dsRNA assay kit (Thermo Fisher Scientific®), and mRNA integrity was evaluated on the Agilent 2100 Bioanalyzer using the RNA 6000 nano kit (Agilent®). All samples had RNA integrity number values ≥7.5. Libraries from control and treated samples were prepared starting from 150 ng of total mRNA using the KAPA RNA HyperPrep Kit with RiboErase (HMR) kit (KAPA Biosystems®) following the manufacturer's recommendations (KR1351—v1.16). Libraries were equimolarly pooled and sequenced on a single lane of an Illumina® NovaSeq 6000 platform. All libraries were sequenced at a depth of >50 million paired-end reads (2×100 bp reads) per sample. All sequencing data were analyzed using the Automated Reproducible MOdular workflow for preprocessing and differential analysis of RNAseq data (ARMOR) pipeline. In this pipeline, reads underwent a quality check using FastQC. Quantification and quality control results were summarized in a MultiQC report before being mapped using Salmon to the transcriptome index that was built using all Ensembl cDNA sequences obtained in the Homo_sapiens.GRCh38.cdna.all.fa file. Then, estimated transcript abundances from Salmon were imported into R using the tximeta package, and analyzed for differential gene expression with edgeR. To get a robust signature, only genes with |log 2 Fold Change|>1 and P<0.01 were retained.

[2] = system: SkBr3 cells; assay: RNA sequencing; format: cell-based, human; details: MitoQ 500 nM, 48 h; |log 2 fold change|>1 and P<0.01
Experimental: as §1

COC1=C(OC)C(=O)C(CCCCCCCCCC[P+](c2ccccc2)(c2ccccc2)c2ccccc2)=C(C)C1=O [MitoQ]
number of downregulated transcripts [1]: 1,943 | number of upregulated transcripts [1]: 2,153 | number of downregulated transcripts [2]: 5 | number of upregulated transcripts [2]: 20

Source: US20250270648A1, “MOLECULAR SIGNATURE FOR ASSESSING THE RESPONSIVENESS OF CANCER TO MITOCHONDRIA-TARGETED ANTIOXIDANTS” (UNIVERSITÉ CATHOLIQUE DE LOUVAIN, priority 2021, published 2025)
